Test results as given in ChEMBL document CHEMBL1201862, “PubChem BioAssay data set” (2004).
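Cells were grown in 96-well plates and exposed to each compound for 48 hours at five concentrations; endpoints were interpolated linearly between bracketing concentrations, or set to the highest concentration if not reached. GI50: concentration for 50% inhibition of growth.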 The source made the active and inactive calls. No stated cut-off is given here; in the data, active = GI50 up to about 1.1 µM and inactive = higher.

How the values were obtained:
Experiment in all cases: growth of human tumour cells (NCI), 48 h
MOLT-4 = tested on: MOLT-4
RXF 393 = tested on: RXF 393
TK-10 = tested on: TK-10
CCRF-CEM = tested on: CCRF-CEM
SF-268 = tested on: SF-268
SN12C = tested on: SN12C
HOP-92 = tested on: HOP-92
HT-29 = tested on: HT-29
SF-539 = tested on: SF-539
PC-3 = tested on: PC-3
K562 = tested on: K562
NCI-H522 = tested on: NCI-H522
SK-MEL-28 = tested on: SK-MEL-28
SK-OV-3 = tested on: SK-OV-3
CAKI-1 = tested on: CAKI-1
T47D = tested on: T47D
UO-31 = tested on: UO-31
NCI/ADR-RES = tested on: NCI/ADR-RES
A498 = tested on: A498
RPMI-8226 = tested on: RPMI-8226

Compound	GI50 (MOLT-4)	GI50 (RXF 393)	GI50 (TK-10)	GI50 (CCRF-CEM)	GI50 (SF-268)	GI50 (SN12C)	GI50 (HOP-92)	GI50 (HT-29)	GI50 (SF-539)	GI50 (PC-3)	GI50 (K562)	GI50 (NCI-H522)	GI50 (SK-MEL-28)	GI50 (SK-OV-3)	GI50 (CAKI-1)	GI50 (T47D)	GI50 (UO-31)	GI50 (NCI/ADR-RES)	GI50 (A498)	GI50 (RPMI-8226)
CC1=C(/C=C/C(C)=C/C=C/C(C)=C/C(=O)Nc2ccc(O)cc2)C(C)(C)CCC1 [FENRETINIDE]	1.11 µM (active)	2.04 µM (inactive)	16.1 µM (inactive)	0.057 µM (active)	3.52 µM (inactive)	2.52 µM (inactive)	2.97 µM (inactive)	2.63 µM (inactive)	1.05 µM (active)	3.13 µM (inactive)	2.69 µM (inactive)	0.929 µM (active)	4.23 µM (inactive)	6.68 µM (inactive)	5.06 µM (inactive)	2.7 µM (inactive)	3.26 µM (inactive)	2.71 µM (inactive)	4.73 µM (inactive)	1.65 µM (inactive)
CC(Cc1ccc(O)c(O)c1)C(C)Cc1ccc(O)c(O)c1 (stereo not given) [NORDIHYDROGUAIARETIC ACID]	8.22 µM (inactive)	13.6 µM (inactive)	23.6 µM (inactive)	4.38 µM (inactive)	16.3 µM (inactive)	> 36.7 µM (inactive)	3.14 µM (inactive)	22.9 µM (inactive)	17.5 µM (inactive)	21.9 µM (inactive)	25.4 µM (inactive)	2.03 µM (inactive)	16.2 µM (inactive)	21.5 µM (inactive)	11.4 µM (inactive)	18.4 µM (inactive)	9.55 µM (inactive)	22.8 µM (inactive)	37 µM (inactive)	10.1 µM (inactive)
